Read-outs that look alike come from different tables or passages of the source.
Columns and labels:
cyclin B/CDK1 enzyme = target: T1, cyclin B/CDK1 enzyme (Homo sapiens, UniProt P06493); assay: CDK1 ELISA kinase assay (phospho-Rb ser 795 detection); format: biochemical; details: In Vitro Enzyme Assays, read-out: CDK1 IC50
T1 construct: purchased New England BioLabs; host or cells: Sf9 insect cells, recombinant baculovirus
Procedure, shortened: (§1)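 Partially purified Sf9-expressed cyclin D1/CDK4, cyclin E/CDK2 or cyclin B/CDK1 phosphorylated plate-bound GST-Rb C-terminal fragment with 200 μM ATP at 30° C for 1 h.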

MCF-7 = assay: Cytotoxicity assay (SRB), MCF-7; format: cell-based; details: MCF-7 cells, SRB, three days, read-out: In Vitro Cellular Activity IC50 MCF-7
Procedure, shortened: (§2)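 Plate cells, let them attach overnight, add compound dilutions in RPMI 1640/5% FBS, and incubate 3 days (BT474 6 days). Then fix with TCA, stain with SRB, dissolve the dye in Tris and read at 540 nm.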

HCT-116 = assay: Cytotoxicity assay (SRB), HCT-116; format: cell-based; details: HCT116 cells, SRB, three days, read-out: In Vitro Cellular Activity IC50 HCT116
Procedure, shortened: as §2

cyclin D1/cdk 4 enzyme = target: T2, cyclin D1/cdk 4 enzyme (Homo sapiens, UniProt P11802); assay: CDK4 ELISA kinase assay (phospho-Rb ser 795 detection); format: biochemical; details: In Vitro Enzyme Assays, 200 μM ATP, read-out: CDK4 IC50
T2 construct: made in house; host or cells: Sf9 insect cells, recombinant baculovirus
T2 sequence (P11802 whole entry, species assumed): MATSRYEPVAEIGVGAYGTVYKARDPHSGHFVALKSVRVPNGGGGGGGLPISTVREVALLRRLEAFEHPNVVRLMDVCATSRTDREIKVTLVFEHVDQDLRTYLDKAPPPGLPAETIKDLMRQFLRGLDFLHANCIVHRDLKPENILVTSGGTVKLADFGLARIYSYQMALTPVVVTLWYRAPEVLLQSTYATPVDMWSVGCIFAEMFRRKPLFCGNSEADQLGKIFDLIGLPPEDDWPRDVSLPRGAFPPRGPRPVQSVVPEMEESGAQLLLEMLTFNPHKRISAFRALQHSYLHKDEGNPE
T2 sequence (P24385 whole entry partner, species assumed): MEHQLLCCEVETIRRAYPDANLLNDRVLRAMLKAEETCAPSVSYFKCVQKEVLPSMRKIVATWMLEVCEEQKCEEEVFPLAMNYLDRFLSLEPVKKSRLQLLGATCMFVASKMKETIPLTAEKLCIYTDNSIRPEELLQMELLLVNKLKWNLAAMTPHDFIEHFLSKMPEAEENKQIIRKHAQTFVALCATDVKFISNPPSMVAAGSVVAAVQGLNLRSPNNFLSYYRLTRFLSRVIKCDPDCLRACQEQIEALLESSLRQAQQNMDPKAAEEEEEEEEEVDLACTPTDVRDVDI
Procedure, shortened: as §1

cyclin E/CDK2 enzyme = target: T3, cyclin E/CDK2 enzyme (Homo sapiens, UniProt P24941); assay: CDK2 ELISA kinase assay (phospho-Rb ser 795 detection); format: biochemical; details: In Vitro Enzyme Assays, read-out: CDK2 IC50
T3 construct: made in house; host or cells: Sf9 insect cells, recombinant baculovirus
Procedure, shortened: as §1

SK-UT-1B = assay: In Vitro Cellular Activity (Table III), SK-UT-1B; format: cell-based; details: SK-UT-1B cells
BT474 = assay: Cytotoxicity assay (SRB), BT474; format: cell-based; details: BT474 cells, SRB, 6 days, read-out: In Vitro Cellular Activity IC50 BT474
Procedure, shortened: as §2

LoVo = assay: Cytotoxicity assay (SRB), LoVo; format: cell-based; details: LoVo cells, SRB, three days, read-out: In Vitro Cellular Activity IC50 LOVO
Procedure, shortened: as §2

T1 sequence (P06493 whole entry): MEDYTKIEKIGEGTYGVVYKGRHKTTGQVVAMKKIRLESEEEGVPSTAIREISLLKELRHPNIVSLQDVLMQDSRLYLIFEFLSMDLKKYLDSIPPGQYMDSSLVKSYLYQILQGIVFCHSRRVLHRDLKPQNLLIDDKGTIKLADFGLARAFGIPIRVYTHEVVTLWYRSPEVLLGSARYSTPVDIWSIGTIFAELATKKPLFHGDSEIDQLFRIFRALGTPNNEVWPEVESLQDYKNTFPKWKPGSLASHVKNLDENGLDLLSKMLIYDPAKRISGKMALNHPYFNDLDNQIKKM
T1 sequence (P14635 whole entry partner): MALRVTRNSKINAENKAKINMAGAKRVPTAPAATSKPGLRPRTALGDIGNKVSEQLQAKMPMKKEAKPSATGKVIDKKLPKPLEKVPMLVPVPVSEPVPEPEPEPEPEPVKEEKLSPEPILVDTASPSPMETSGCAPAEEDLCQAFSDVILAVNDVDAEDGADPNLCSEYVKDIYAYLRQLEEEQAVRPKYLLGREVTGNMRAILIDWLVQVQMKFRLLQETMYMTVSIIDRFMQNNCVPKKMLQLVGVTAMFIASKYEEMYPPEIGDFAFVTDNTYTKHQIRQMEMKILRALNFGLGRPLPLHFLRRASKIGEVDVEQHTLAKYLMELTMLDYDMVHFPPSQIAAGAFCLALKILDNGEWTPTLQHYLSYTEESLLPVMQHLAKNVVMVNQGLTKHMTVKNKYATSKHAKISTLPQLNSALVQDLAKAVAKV

| Compound | IC50 (cyclin B/CDK1 enzyme) | IC50 (MCF-7; Homo sapiens, MCF7, 72 h) | IC50 (HCT-116; Homo sapiens, HCT-116, 72 h) | IC50 (cyclin D1/cdk 4 enzyme) | IC50 (cyclin E/CDK2 enzyme) | IC50 (SK-UT-1B; Homo sapiens, Skut1B) | melting point | IC50 (BT474; Homo sapiens, BT-474, 144 h) | IC50 (LoVo; Homo sapiens, LoVo, 72 h) | IC50 (MCF-7) | IC50 (HCT-116) | IC50 (SK-UT-1B) | IC50 (BT474) | IC50 (LoVo) |
| --- | --- | --- | --- | --- | --- | --- | --- | --- | --- | --- | --- | --- | --- | --- |
| O=C1NC(=O)c2ccccc2/C1=C/Nc1ccc(CCN2CCCC2)cc1 [Example 5, (4Z)-4-({[4-(2-Pyrrolidin-1-ylethyl)phenyl]amino}methylene)isoquinoline-1,3(2H,4H)-dione] | > 28 µM | 8 µM | 10.8 µM | 10.2 µM | > 28 µM | 10.2 µM | 224 to 225 °C | – | – | – | – | – | – | – |
| O=C1NC(=O)c2ccccc2/C1=C/Nc1ccc(CN2CCCCC2)cc1 [Example 13, (4Z)-4-({[4-(Piperidin-1-ylmethyl)phenyl]amino}methylene)isoquinoline-1,3(2H,4H)-dione] | > 28 µM | 7.3 µM | 8.6 µM | 7.9 µM | – | 11.3 µM | 185 to 186 °C | 27 µM | 15 µM | – | – | – | – | – |
| Cn1ccnc1Sc1ccc(N/C=C2\C(=O)NC(=O)c3ccccc32)cc1Cl [Example 14, (4Z-4-[{3-Chloro-4[(1-methyl-1H-imidazole-2-uy)thio]phenyl}amino)methylene]isoquinoline-1,3(2H,4H)-dione] | – | > 50 µM | 8.7 µM | – | – | 18.4 µM | 264 to 265 °C | 38 µM | > 50 µM | – | – | – | – | – |
| O=C1NC(=O)c2ccccc2/C1=C/Nc1cccc(CN2CCCCC2)c1 [Example 16, (4Z)-4-({[3-(Piperidin-1-ylmethyl)phenyl]amino}methylene)isoquinoline-1,3(2H,4H)-dione] | – | 19 µM | 14 µM | – | – | 18.5 µM | 173 to 174 °C | 45 µM | 14 µM | – | – | – | – | – |
| O=C1NC(=O)c2ccccc2/C1=C/Nc1cccc(CN2CCCCCC2)c1 [Example 17, (4Z)-4-({[3-(Azepan-1-ylmethyl)phenyl]amino}methylene)isoquinoline-1,3(2H,4H)-dione] | – | 20 µM | 14 µM | – | – | 16 µM | 116 to 117 °C | 30 µM | 19 µM | – | – | – | – | – |
| O=C1NC(=O)c2ccccc2/C1=C/Nc1cccc(CN2CCCC2)c1 [Example 18, (4Z)-4-({[3-(Pyrrolidin-1-ylmethyl)phenyl]amino}methylene)isoquinoline-1,3(2H,4H)-dione] | – | 15 µM | 15 µM | – | – | 15.8 µM | 172 to 173 °C | 31 µM | 23 µM | – | – | – | – | – |
| CN1CCN(Cc2ccc(N/C=C3\C(=O)NC(=O)c4ccccc43)cc2)CC1 [Example 20] | > 26 µM | 14 µM | 10 µM | 6.7 µM | – | 18.5 µM | 231 to 232 °C | – | – | – | – | – | – | – |
| O=C1NC(=O)c2ccccc2/C1=C/Nc1ccc(-c2ccccc2)cc1 [Example 21, (4Z)-4-[(1,1′-Biphenyl-4-ylamino)methylene]isoquinoline-1,3(2H,4H)-dione] | – | > 50 µM | > 50 µM | – | – | 19.7 µM | 261 to 262 °C | > 50 µM | > 50 µM | – | – | – | – | – |
| O=C1NC(=O)c2ccc(Br)cc2/C1=C/Nc1ccc(CN2CCCCC2)cc1 [Example 24, (4Z)-6-Bromo-4-{[(4-piperidin-1-ylmethyl)phenyl]amino}methyleneisoquinoline-1,3(2H,4H)-dione] | > 50 µM | 3.1 µM | 5 µM | – | – | 7.8 µM | 222 to 225 °C | 4.8 µM | 6 µM | – | – | – | – | – |
| COc1cc(CN/C=C2\C(=O)NC(=O)c3ccc(Br)cc32)ccc1O [Example 28, (4Z)-6-Bromo-4-{[(4-hydroxy-3-methoxybenzyl)amino]methylene}isoquinoline-1,3(2H,4H)-dione] | – | > 50 µM | 28 µM | – | – | 33 µM | 260 to 261 °C | 39 µM | > 50 µM | – | – | – | – | – |
| CC(C)(C)OC(=O)N1CCN(Cc2ccc(N/C=C3\C(=O)NC(=O)c4ccccc43)cc2)CC1 [Example 34] | – | 38 µM | 14 µM | – | – | 15 µM | 219 to 220 °C | 25 µM | > 50 µM | – | – | – | – | – |
| O=C1NC(=O)c2ccc(Br)cc2/C1=C/Nc1ccccc1CN1CCCCC1 [Example 41, (4Z)-6-Bromo-4-({[2-(piperidin-1-ylmethyl)phenyl}amino)methylene]isoquinolin-1,3(2H,4H)-dione] | – | 13 µM | 39 µM | – | – | 11 µM | 170 to 171 °C | 25 µM | 49 µM | – | – | – | – | – |
| O=C1NC(=O)c2cc(Br)ccc2/C1=C/Nc1ccc(CN2CCCCC2)cc1 [Example 44, (4Z)-7-Bromo-4-({[4-(Piperidin-1-ylmethyl)phenyl]amino}methylene)isoquinoline-1,3(2H,4H)-dione] | – | 6.6 µM | 3.6 µM | – | – | 3.5 µM | 242 to 243 °C | 4.6 µM | 4 µM | – | – | – | – | – |
| O=C1NCc2ccccc2/C1=C/Nc1ccc(-c2c[nH]cn2)cc1 [compound 3] | > 32 µM | 11 µM | 7.8 µM | 42 µM | 13 µM | 4.4 µM | – | 20 µM | 12 µM | – | – | – | – | – |
| O=C1NC(=O)c2ccc(Br)cc2/C1=C/NCc1cccnc1 [compound 30] | > 50 µM | 15 µM | 9.2 µM | > 50 µM | 1.4 µM | 4.9 µM | – | 31 µM | 14 µM | – | – | – | – | – |
| (4E)-4-(2,3-dimethoxybenzylidene)isoquinoline-1,3(2H,4H)-dione-(4Z)-4-(2,3-dimethoxybenzylidene)isoquinoline-1,3(2H,4H)-dione (1:1) [Example 9] | > 32 µM | – | – | > 50 µM | > 32 µM | – | – | – | – | 9.7 µM | 2.5 µM | 15.1 µM | 48 µM | 6.8 µM |
| (4E)-4-[4-(dimethylamino)benzylidene]isoquinoline-1,3(2H,4H)-dione-(4Z)-4-[4-(dimethylamino)benzylidene]isoquinoline-1,3(2H,4H)-dione (1:1) [Example 10] | > 34 µM | – | – | > 50 µM | > 34 µM | – | – | – | – | 12.5 µM | 2.3 µM | 23.6 µM | > 50 µM | 5.9 µM |

Reference: patent publication US7713994B2 (Wyeth LLC, priority 2005, dated 2010)
